Measured values published in article PMC10452110, “Indole-3-Acetamido-Polyamines as Antimicrobial Agents and Antibiotic Adjuvants” (Biomolecules, 2023).
≈ marks a conversion by molar mass, not a printed value. Where two headings read alike, the source gives them in different places. Marks after values point to notes of the source that are not given here.

Legend:
[1] = test system: Klebsiella pneumoniae (ATCC 700603); design: method as in Cadelis et al. [15]; conditions: K. pneumoniae ATCC 700603; ref Cadelis et al. [15]; cited from earlier work
[2] = test system: Escherichia coli (ATCC 25922); design: method as in Cadelis et al. [15]; conditions: E. coli ATCC 25922; ref Cadelis et al. [15]; cited from earlier work
[3] = test system: Acinetobacter baumannii (ATCC 19606); design: method as in Cadelis et al. [15]; conditions: A. baumannii ATCC 19606; ref Cadelis et al. [15]; cited from earlier work
[4] = test system: Staphylococcus aureus (ATCC 25923); design: method as in Cadelis et al. [15]; conditions: S. aureus ATCC 25923; ref Cadelis et al. [15]; cited from earlier work
human red blood cells [5] = test system: human red blood cells; design: method as in Cadelis et al. [15]; conditions: ref Cadelis et al. [15], cited from earlier work
[6] = test system: HEK293 (human embryonic kidney) cells; design: method as in Cadelis et al. [15]; conditions: ref Cadelis et al. [15], cited from earlier work; for IC50: read-out: Cytotoxicity: concentration of compound at 50% cytotoxicity (IC50)
[7] = test system: Pseudomonas aeruginosa (ATCC 27853); design: method as in Cadelis et al. [15]; conditions: P. aeruginosa ATCC 27853; ref Cadelis et al. [15]; cited from earlier work
[8] = test system: Candida albicans (ATCC 90028); design: method as in Cadelis et al. [15]; conditions: C. albicans ATCC 90028; ref Cadelis et al. [15]; cited from earlier work
MRSA (ATCC 43300) [9] = conditions: ref Cadelis et al. [15]; cited from earlier work
P. aeruginosa ATCC 27853 [10] = test system: P. aeruginosa ATCC 27853; design: method as in Cadelis et al. [15]; conditions: doxycycline at 4.5 µM, ref Cadelis et al. [15], cited from earlier work; for Dox/P. a fold change (ratio between intrinsic MIC of the test compound and combination MIC): P. aeruginosa ATCC 27853; for Dox/P. a: concentration required to restore doxycycline activity (combination MIC): P. aeruginosa
[11] = test system: Cryptococcus neoformans (ATCC 208821); design: method as in Cadelis et al. [15]; conditions: C. neoformans ATCC 208821; ref Cadelis et al. [15]; cited from earlier work
E. coli = test system: E. coli; design: method as in PMID 33090655; conditions: ref [15]; cited from earlier work
K. pneumoniae = test system: K. pneumoniae; design: method as in PMID 33090655; conditions: ref [15]; cited from earlier work
[12] = test system: Escherichia coli (ATCC 25922); experiment: Intrinsic antimicrobial activity (MIC) against E. coli; type: cell-based; conditions: ATCC25922, E. coli ATCC 25922, mean (n = 3), read-out: MIC E. c
How it was run: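 Susceptibility testing: bacteria per earlier published methods; fungi per CO-ADD standard protocols (University of Queensland).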

MRSA (CF-Marseille) = experiment: Real time growth inhibition curves, microdilution MIC and MBC, MRSA (CF-Marseille); type: cell-based, Staphylococcus aureus
Text: (§1) We next assessed the kinetics of antibacterial activity of 15c towards the Gram-positive bacteria S. aureus ATCC 25923 and MRSA (CF-Marseille) by measuring real time growth inhibition curves.

S. aureus ATCC 25923 = experiment: Real time growth inhibition curves, microdilution MIC and MBC, S. aureus; type: cell-based, Staphylococcus aureus
Text: as §1

MRSA (ATCC 43300) [13] = experiment: Intrinsic antimicrobial activity (MIC) against MRSA; type: cell-based; conditions: Staphylococcus aureus, MRSA ATCC 43300; mean (n = 2); read-out: MIC MRSA
How it was run: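 Bacterial susceptibility was determined following previously reported protocols. The antifungal evaluations were carried out at the Community for Open Antimicrobial Drug Discovery (University of Queensland, Australia) under its standard protocols.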

[14] = test system: Staphylococcus aureus (ATCC 25923); experiment: Intrinsic antimicrobial activity (MIC) against S. aureus; type: cell-based; conditions: ATCC25923, S. aureus ATCC 25923, mean (n = 3), read-out: MIC S. a
How it was run: (§2)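 Antibacterial MICs by established in-house protocol; yeast MICs run externally at CO-ADD, University of Queensland, per their standard screening protocols.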

[15] = test system: Pseudomonas aeruginosa (ATCC 27853); experiment: Intrinsic antimicrobial activity (MIC) against P. aeruginosa; type: cell-based; conditions: ATCC27853, P. aeruginosa ATCC 27853, mean (n = 3), read-out: MIC P. a
How it was run: as §2

P. aeruginosa ATCC 27853 [16] = experiment: Enhancement of doxycycline action against P. aeruginosa; type: cell-based, Pseudomonas aeruginosa; conditions: doxycycline at 4.5 µM
Protocol: (§3) Antibiotic enhancer concentrations were determined using previously reported protocols.

Cytotoxicity assay = type: cell-based; conditions: human; HEK293 cells; mean (n = 2); read-out: Cytotoxicity: concentration of compound at 50% cytotoxicity (IC50)
Protocol: Cytotoxicity assays were conducted using the protocols previously reported.

[17] = test system: Candida albicans (ATCC 90028); experiment: Intrinsic antifungal activity (MIC) against C. albicans; type: cell-based; conditions: ATCC90028, C. albicans ATCC 90028, mean (n = 2), read-out: MIC C. a
How it was run: (§4)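 Fungal strains were tested by CO-ADD at The University of Queensland using that facility's standard protocols, whereas bacterial MICs followed methods published earlier.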

human red blood cells [18] = experiment: Hemolytic assay; type: cell-based; conditions: mean (n = 2)
Protocol: Hemolysis assays were conducted using the protocols previously reported.

E. coli ATCC 25922 = experiment: Enhancement of erythromycin action against E. coli; type: cell-based, Escherichia coli; conditions: erythromycin at 10.9 µM
Protocol: as §3

[19] = test system: Acinetobacter baumannii (ATCC 19606); experiment: Intrinsic antimicrobial activity (MIC) against A. baumannii; type: cell-based; conditions: ATCC19606, A. baumannii ATCC 19606, mean (n = 2), read-out: MIC A. b
[20] = test system: Cryptococcus neoformans (ATCC 208821); experiment: Intrinsic antifungal activity (MIC) against C. neoformans; type: cell-based; conditions: ATCC208821, C. neoformans ATCC 208821, mean (n = 2), read-out: MIC C. n
How it was run: as §4

[21] = test system: Klebsiella pneumoniae (ATCC 700603); experiment: Intrinsic antimicrobial activity (MIC) against K. pneumoniae; type: cell-based; conditions: ATCC700603, K. pneumoniae ATCC 700603, mean (n = 2), read-out: MIC K. p
[22] = lowest tested concentration 6.4 μM

O=C(Cc1c[nH]c2ccccc12)NCCCNCCCCNCCCNC(=O)Cc1c[nH]c2ccccc12 [Compound 14a]
MIC K. p [1]: >62 µM
MIC E. c [2]: >200 ^j µM
MIC A. b [3]: >62 µM
MIC S. a [4]: 200 µM (≈ 103 µg/mL)
Hemolysis: concentration of compound at 10% hemolytic activity (HC10) (human red blood cells [5]): >43 µM
IC50 [6]: > 43 µM
MIC P. a [7]: >200 µM
MIC C. a [8]: >62 µM
MIC MRSA (MRSA (ATCC 43300) [9]): >62 µM
Dox/P. a fold change (ratio between intrinsic MIC of the test compound and combination MIC) (P. aeruginosa ATCC 27853 [10]): > 4 fold
Dox/P. a: concentration required to restore doxycycline activity (combination MIC) (P. aeruginosa ATCC 27853 [10]): 50 µM
MIC C. n [11]: >62 µM

O=C(Cc1c[nH]c2ccc(Br)cc12)NCCCNCCCCNCCCNC(=O)Cc1c[nH]c2ccc(Br)cc12 [Compound 15a]
MIC K. p [1]: >48 µM
MIC E. c [2]: 200 µM (≈ 135 µg/mL)
enhancement of the antibiotic action of doxycycline (MIC) (E. coli): 3.125 µM
MIC A. b [3]: >48 µM
MIC S. a [4]: 25 µM (≈ 16.9 µg/mL)
Hemolysis: concentration of compound at 10% hemolytic activity (HC10) (human red blood cells [5]; listed as 5): negligible
Hemolysis: concentration of compound at 10% hemolytic activity (HC10) (human red blood cells [5]): >35 µM
enhancement of the antibiotic action of doxycycline (MIC) (K. pneumoniae): 6.25 µM
IC50 [6]: > 35 µM
Cytotoxicity: concentration of compound at 50% cytotoxicity (IC50) [6]: negligible
MIC P. a [7]: 200 µM (≈ 135 µg/mL)
MIC C. a [8]: >48 µM
MIC MRSA (MRSA (ATCC 43300) [9]): 47.4 µM (≈ 32 µg/mL)
Dox/P. a fold change (ratio between intrinsic MIC of the test compound and combination MIC) (P. aeruginosa ATCC 27853 [10]): 32 fold
Dox/P. a: concentration required to restore doxycycline activity (combination MIC) (P. aeruginosa ATCC 27853 [10]): 6.25 µM
MIC C. n [11]: 11.9 µM (≈ 8.03 µg/mL)

O=C(Cc1c[nH]c2ccc(Br)cc12)NCCCNCCCCCCCNCCCNC(=O)Cc1c[nH]c2ccc(Br)cc12.O=C(O)C(F)(F)F.O=C(O)C(F)(F)F [Compound 15c, N^1,N^7-Bis(3-(2-(5-bromo-1H-indol-3-yl)acetamido)propyl)heptane-1,7-diaminium 2,2,2-trifluoroacetate]
MIC [12]: 13.2 µM
mode of antibacterial action (MBC versus MIC) (MRSA (CF-Marseille)): bactericidal
MIC (MRSA (CF-Marseille); Staphylococcus aureus, matches real time growth curve at 18 h, read-out: MIC (classical microdilution methodology)): 12.7 µM
MBC (MRSA (CF-Marseille); Staphylococcus aureus, read-out: minimum bactericidal concentration (MBC)): 12.7 µM
real time growth inhibition (MRSA (CF-Marseille); at 25.4 μM and 12.7 μM): completely inhibited
time after which bacterial growth was detected (MRSA (CF-Marseille); [22]): > 4 h
mode of antibacterial action (MBC versus MIC) (S. aureus ATCC 25923): bactericidal
MIC (S. aureus ATCC 25923; Staphylococcus aureus, ATCC25923, matches real time growth curve at 18 h, read-out: MIC (classical microdilution methodology)): 12.7 µM
MBC (S. aureus ATCC 25923; Staphylococcus aureus, ATCC25923, read-out: minimum bactericidal concentration (MBC)): 12.7 µM
real time growth inhibition (S. aureus ATCC 25923; at 25.4 μM and 12.7 μM): completely inhibited
time after which bacterial growth was detected (S. aureus ATCC 25923; [22]): > 4 h
MIC (MRSA (ATCC 43300) [13]): ≤ 0.26 µM
MIC [14]: 12.7 µM
MIC [15]: 106 µM
Dox/P. a: concentration required to restore doxycycline activity (combination MIC) (P. aeruginosa ATCC 27853 [16]): 6.62 µM
IC50 (Cytotoxicity assay): > 34 µM
MIC [17]: ≤ 0.26 µM
Hemolysis: concentration of compound at 10% hemolytic activity (HC10) (human red blood cells [18]): >34 µM
Eryth/E. c: concentration required to restore erythromycin activity (combination MIC) (E. coli ATCC 25922): 6.62 µM
MIC [19]: > 34 µM
MIC [20]: ≤ 0.26 µM
MIC [21]: > 34 µM

COc1ccc2[nH]cc(CC(=O)NCCCNCCCCNCCCNC(=O)Cc3c[nH]c4ccc(OC)cc34)c2c1 [Compound 16a]
MIC K. p [1]: >55 µM
MIC E. c [2]: >200 µM
MIC A. b [3]: >55 µM
MIC S. a [4]: 200 µM (≈ 115 µg/mL)
Hemolysis: concentration of compound at 10% hemolytic activity (HC10) (human red blood cells [5]): >40 µM
IC50 [6]: > 40 µM
MIC P. a [7]: >200 µM
MIC C. a [8]: >55 µM
MIC MRSA (MRSA (ATCC 43300) [9]): >55 µM
Dox/P. a fold change (ratio between intrinsic MIC of the test compound and combination MIC) (P. aeruginosa ATCC 27853 [10]): > 1 fold
Dox/P. a: concentration required to restore doxycycline activity (combination MIC) (P. aeruginosa ATCC 27853 [10]): 200 µM
MIC C. n [11]: >55 µM
